Measured values reported in patent publication US20130123208A1, “METHOD OF TREATING MULTIPLE SCLEROSIS WITH ADENOSINE RECEPTOR AGONISTS” (THE REGENTS OF THE UNIVERSITY OF COLORADO, a body …, priority 2010, published 2013).
Entries after “also recorded” stand apart in the source; their conditions may differ.

What was measured:
rats with EAE = assay: EAE model, survival curve (time to motor score 6 or higher); type: in vivo, Male Dark Agouti rats
Text: In a separate group of rats from Example 1, MOG was intradermally administered as described above. […] The time at which motor score reached 6 or higher after the onset of motor symptoms is represented on the survival curve shown in FIG. 2. […] A single intrathecal injection of an A2A agonist, CGS21680, improved survival percentage in rats with EAE.

rat spines (EAE) = assay: FLAIR and T2-weighted MRI on rat spines in EAE; type: in vivo; conditions: ATL313 treated animals with preserved motor scores
Procedure: ATL313 (4-{3-[6-amino-9-(5-cyclopropylcarbamoyl-3,4-dihydroxy-tetrahydro-furan-2-yl)-9H-purin-2-yl]-prop-2-ynyl}-piperidine-1-carboxylic acid methyl ester) (single bolus 1 μM-not shown and 10 μM) was used in the EAE model as described above (8-9 rats/group). The change in motor symptoms and the survival curve for ATL313 (10 μM) are shown in FIGS. 4A and 4B, respectively. 1 μM ATL313 produced a reduction in motor score lasting approximately 10 days.

neuropathic pain = conditions: duration of effect ~35 days; cited from earlier work
[1] = system: rats with EAE (MOG-induced Experimental Autoimmune Encephalitis); assay: EAE model, motor score after single intrathecal bolus
Procedure: The EAE model described above was used. Motor score was assessed three days before and daily post MOG administration (8.25 ug intradermally). At the onset of motor symptoms (partial tail paralysis, motor score 1) rats were randomly injected with an A2A agonist, CGS21680 (3-[4-[2-[[6-amino-9-[(2R,3R,4S,5S)-5-(ethylcarbamoyl)-3,4-dihydroxy-oxolan-2-yl]purin-2-yl]amino]ethyl]phenyl]propanoic acid) (10 μM) or vehicle.

[2] = system: OX-42 (microglial activation marker); assay: Immunohistochemistry of the dorsal spinal cord, OX-42; type: in vivo, rats; conditions: motor score 6 or higher or 24 days post onset, vs vehicle, P<0.05 (FIG. 3)
[3] = system: cd68 (classically activated macrophage marker); assay: Immunohistochemistry of the dorsal spinal cord, cd68; type: in vivo, rats; conditions: motor score 6 or higher or 24 days post onset, vs vehicle, P<0.05 (FIG. 3)

| SMILES | rats still alive (rats with EAE; 10 μM intrathecal, at 70 days, with stabilized motor scores (FIG. 4B)) | survival rate (rats with EAE; 10 μM single intrathecal injection, MOG+ATL313 vs MOG+vehicle (FIG. 4B)) | survival (rats with EAE; FIG. 6 legend) | MRI abnormalities (hyperintensity) of spine (rat spines (EAE)) | neuropathic pain (neuropathic pain) | duration of attenuation of motor effects of EAE, at worst ([1]; 5 ng intrathecal single bolus) [days] | progression of motor impairment/dysfunction induced by EAE ([1]; 5 ng intrathecal single bolus at initial onset of motor impairment (FIG. 5A)) | number of animals where motor deterioration is arrested with no further progression ([1]; 5 ng intrathecal, first group (FIG. 5B)) | number of rats whose motor symptoms continued on the usual course at around day 35 ([1]; 5 ng intrathecal, second group (FIG. 5C)) | duration of reduction in motor score ([1]; 1 μM single intrathecal bolus) | duration of arrest of progression of motor score symptoms ([1]; 10 μM single intrathecal injection (FIG. 4A)) [days] | duration of suppression of paralysis ([1]; FIG. 6 legend, other sub-group) [week] | paralysis ([1]; FIG. 6 legend, surviving ATL313 rats) | percentage of survival (rats with EAE; 10 μM intrathecal at onset of motor symptoms, day 25, vs vehicle, P<0.05 (FIG. 2)) | OX-42 staining [2] | cd68 staining [3] | severity of motor symptoms (motor score) ([1]; 10 μM, single intrathecal injection at onset of motor symptoms, vs vehicle (FIG. 1)) |
| --- | --- | --- | --- | --- | --- | --- | --- | --- | --- | --- | --- | --- | --- | --- | --- | --- | --- |
| COC(=O)N1CCC(CC#Cc2nc(N)c3ncn([C@@H]4O[C@H](C(=O)NC5CC5)C(O)C4O)c3n2)CC1 (stereo in doubt) [ATL313, 4-{3-[6-amino-9-(5-cyclopropylcarbamoyl-3,4-dihydroxy-tetrahydro-furan-2-yl)-9H-purin-2-yl]-prop-2-ynyl}-piperidine-1-carboxylic acid methyl ester] | 6/9 | increased survival rate | markedly enhances survival | only minimal abnormalities | attenuates neuropathic pain | ~35 | good attenuation of progression of motor impairment/dysfunction | 6 | 3 | approximately 10 days | > 80 | ~4 | arrests paralysis in every surviving ATL313 rat |  |  |  |  |
| CCNC(=O)[C@H]1O[C@@H](n2cnc3c(N)nc(NCCc4ccc(CCC(=O)O)cc4)nc32)[C@H](O)[C@@H]1O [CGS21680, 3-[4-[2-[[6-amino-9-[(2R,3R,4S,5S)-5-(ethylcarbamoyl)-3,4-dihydroxy-oxolan-2-yl]purin-2-yl]amino]ethyl]phenyl]propanoic acid, reference compound] |  |  |  |  |  |  |  |  |  |  |  |  |  | significant difference in percentage of survival | significant reduction | significant reduction | reduced the severity of motor symptoms; also recorded: attenuated motor symptoms |
